According to US9409952B2, “Peptide-compound cyclization method” (Chugai Seiyaku Kabushiki Kaisha, priority 2011, dated 2016):
Like-named read-outs stand apart in the source and are kept apart here. Starred links: 1 amine or outer side, 2 acyl side, 3 side chain; linkers in the order of their positions; H or OH if unused. Positions of bridges follow the written chain, without caps; N, C: chain ends. Non-standard residues stand in square brackets, D forms with d. Residues, ends and D or L forms follow the SMILES beside them. *: point of attachment. Phe(4-(CH2)5CO) = O=C([C@H](Cc1ccc(CCCCCC(=O)[*:3])cc1)N[*:1])[*:2]; NMeF = CN[C@@H](Cc1ccccc1)C(=O)O; NMeGABA = CN(CCCC(=O)[*:2])[*:1]; NMeI = CC[C@H](C)[C@H](NC)C(=O)O; NMeβAla = CN(CCC(=O)[*:2])[*:1]; NMeL = CN[C@@H](CC(C)C)C(=O)O; NMeV = CN[C@H](C(=O)O)C(C)C; NMeA = CN[C@@H](C)C(=O)O; Piperidide = C1CCN(*)CC1; dNMeA = CN[C@H](C)C(=O)O; NPrGly = CCCNCC(=O)O; Sar = CNCC(=O)O; tBu = CC(C)(C)*

Assays:
[1] = PAMPA (parallel artificial membrane permeability assay); assay type: in vitro ADME; conditions: PAMPA
How it was run: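 Artificial membrane was 10% (w/v) egg lecithin plus 0.5% (w/v) cholesterol in dodecane on a PVDF filter. A 10 mM DMSO stock was added at 0.5% (v/v) to donor buffer (50 mM MOPSO, pH 6.5, 5.0% glycocholic acid). After 18 h at 37 °C, LC/MS or LC/UV gave donor and acceptor levels for Pe.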

[2] = Metabolic stability in human hepatic microsome; assay type: in vitro ADME; conditions: microsomes
[3] = membrane permeation rate (Pe), 50 mM MOPSO buffer pH 6.5 with 5.0% glycocholic acid, 37° C., 18 hours, read-out: iPAMPA Pe
[4] = pH 7.4, human hepatic microsome, NADPH(+), read-out: CL NADPH(+)

SMILES	Papp at 18 hours, 50 µM [1, 3] [×10⁻⁶ cm/s]	microsomal CLint at 1 uM [2, 4] [µL/min/mg]	Papp at 18 hours, 50 µM ([1]; pH 6.5) [×10⁻⁶ cm/s]	microsomal CLint at 1 uM ([2]; human, pH 7.4, CL NADPH(+)) [µL/min/mg]
CC(C)[C@@H]1NC(=O)[C@H](C)N(C)C(=O)[C@H](C)N(C)C(=O)[C@H](Cc2ccccc2)N(C)C(=O)CNC(=O)[C@H]([C@@H](C)O)NC(=O)[C@H](C(C)C)N(C)C(=O)[C@H](C)NC(=O)[C@H](C)N(C)C(=O)C[C@@H](C(=O)N(C)[C@@H](Cc2ccccc2)C(=O)N(C)[C@@H](Cc2ccccc2)C(=O)N[C@@H](C)C(=O)N2CCCCC2)NC1=O [DP-457] ([NMeA]A[NMeV]TG[NMeF][NMeA][NMeA]VD[NMeF][NMeF]A-Piperidide; lactam N-10)	10	14		
CC(C)C[C@H]1C(=O)N[C@@H]([C@@H](C)O)C(=O)N(C)[C@@H](Cc2ccccc2)C(=O)N(C)[C@@H](CC(C)C)C(=O)NCC(=O)N(C)[C@@H](C(C)C)C(=O)N[C@@H](Cc2ccccc2)C(=O)N[C@H](C(=O)N(C)[C@@H](Cc2ccccc2)C(=O)N[C@@H](C)C(=O)N2CCCCC2)CC(=O)N(C)[C@H](C)C(=O)N[C@@H](C(C)C)C(=O)N1C [DP-301] ([dNMeA]V[NMeL]T[NMeF][NMeL]G[NMeV]FD[NMeF]A-Piperidide; lactam N-10)			15	184
CC[C@H](C)[C@H](NC(=O)[C@@H]1CC(=O)N[C@@H](C)C(=O)N[C@@H](CC(C)C)C(=O)N2CCC[C@H]2C(=O)N[C@@H](C)C(=O)N[C@@H](CC(C)C)C(=O)N(C)CC(=O)N[C@@H]([C@@H](C)O)C(=O)N[C@@H](Cc2ccccc2)C(=O)N[C@@H](CC(C)C)C(=O)N(C)[C@@H](Cc2ccccc2)C(=O)N[C@@H](C(C)C)C(=O)N1)C(=O)N1CCCCC1 [DP-40] (ALPAL[Sar]TFL[NMeF]VDI-Piperidide; lactam N-12)			5.8	38
CC[C@H](C)[C@@H]1NC(=O)[C@H](Cc2ccccc2)NC(=O)[C@H](CC(C)C)NC(=O)[C@H](CC(C)C)NC(=O)[C@H](C)NC(=O)C[C@@H](C(=O)N2CCCCC2)NC(=O)[C@H](CC(C)C)N(C)C(=O)[C@H](Cc2ccccc2)NC(=O)[C@H](CC(C)C)NC(=O)CNC(=O)[C@H]([C@@H](C)O)NC1=O [DP-513] (ALLFITGLF[NMeL]D-Piperidide; lactam N-11)	30	184		
CC(C)C[C@H]1C(=O)N[C@H](C(=O)N(C)[C@@H](Cc2ccccc2)C(=O)N(C)[C@@H](Cc2ccccc2)C(=O)N[C@@H](C)C(=O)N2CCCCC2)CC(=O)N(C)CCC(=O)N[C@@H](C)C(=O)N(C)[C@@H](Cc2ccccc2)C(=O)N(C)[C@@H](C(C)C)C(=O)NCC(=O)N[C@@H]([C@@H](C)O)C(=O)N(C)[C@@H](C)C(=O)N[C@@H](C(C)C)C(=O)N1C [DP-391] ([NMeβAla]A[NMeF][NMeV]GT[NMeA]V[NMeL]D[NMeF][NMeF]A-Piperidide; lactam N-10)	4.5	14		
CC(C)C[C@H]1C(=O)NCC(=O)N[C@H](C(=O)N(C)[C@@H](Cc2ccccc2)C(=O)N[C@@H](C)C(=O)N2CCCCC2)CC(=O)N[C@H](C)C(=O)N[C@@H]([C@@H](C)O)C(=O)N(C)[C@@H](C)C(=O)N(C)[C@@H](Cc2ccccc2)C(=O)N[C@@H](C(C)C)C(=O)N(C)[C@@H](Cc2ccccc2)C(=O)N1C [DP-307] ([dA]T[NMeA][NMeF]V[NMeF][NMeL]GD[NMeF]A-Piperidide; lactam N-9)			22	125
CC[C@H](C)[C@H]1C(=O)N(C)[C@@H](CC(C)C)C(=O)N[C@@H](Cc2ccccc2)C(=O)N[C@@H]([C@@H](C)O)C(=O)N[C@@H](CC(C)C)C(=O)N(C)[C@@H](Cc2ccccc2)C(=O)N(C)[C@@H](C(C)C)C(=O)N[C@H](C(=O)N2CCCCC2)CC(=O)N[C@H](C)C(=O)N[C@@H](C)C(=O)N1C [DP-252] ([dA]A[NMeI][NMeL]FTL[NMeF][NMeV]D-Piperidide; lactam N-10)	47	119		
CC(C)C[C@H]1C(=O)N[C@@H](COC(C)(C)C)C(=O)N[C@H](C(=O)N2CCCCC2)CC(=O)N[C@H](C)C(=O)N(C)[C@@H](Cc2ccccc2)C(=O)N(C)[C@@H](CC(C)C)C(=O)N[C@@H]([C@@H](C)O)C(=O)N(C)CC(=O)N1C [DP-528] ([dA][NMeF][NMeL]T[Sar][NMeL]S(tBu)D-Piperidide; lactam N-8)	13	55		
CC(C)C[C@H]1C(=O)N(C)[C@@H](CC(C)C)C(=O)N(C)[C@@H](Cc2ccccc2)C(=O)N[C@H](C(=O)N2CCCCC2)CC(=O)N[C@@H](C(C)C)C(=O)N(C)CC(=O)N[C@@H]([C@@H](C)O)C(=O)N1C [DP-719] (V[Sar]T[NMeL][NMeL][NMeF]D-Piperidide; lactam N-7)	26	218		
CC[C@H](C)[C@@H]1NC(=O)[C@H](Cc2ccccc2)N(C)C(=O)[C@H](CC(C)C)NC(=O)[C@H](CC(C)C)NC(=O)[C@H](Cc2ccccc2)NC(=O)[C@H](CC(C)C)NC(=O)[C@@H](C)NC(=O)C[C@@H](C(=O)N(C)[C@@H](C)C(=O)N[C@@H](CC(C)C)C(=O)N[C@@H](C)C(=O)N[C@H](C(=O)N2CCCCC2)[C@@H](C)CC)NC(=O)[C@H](Cc2ccccc2)NC(=O)[C@H]([C@@H](C)O)NC1=O [DP-580] ([dA]LFLL[NMeF]ITFD[NMeA]LAI-Piperidide; lactam N-10)	0.13	54		
CC(C)C[C@H]1C(=O)N[C@@H](Cc2ccccc2)C(=O)N(C)[C@@H](C(C)C)C(=O)N[C@@H]([C@@H](C)O)C(=O)N[C@H](C(=O)N(C)[C@@H](Cc2ccccc2)C(=O)N(C)[C@@H](Cc2ccccc2)C(=O)N[C@@H](C)C(=O)N2CCCCC2)CC(=O)N(C)[C@@H](C)C(=O)N(C)[C@@H](C)C(=O)N[C@@H](C(C)C)C(=O)N(C)[C@@H](Cc2ccccc2)C(=O)NCC(=O)N1C [DP-456] ([NMeA][NMeA]V[NMeF]G[NMeL]F[NMeV]TD[NMeF][NMeF]A-Piperidide; lactam N-10)	41	29		
CC(C)C[C@@H]1NC(=O)[C@H](C)N(C)C(=O)C[C@@H](C(=O)N2CCCCC2)NC(=O)[C@H](Cc2ccccc2)N(C)C(=O)[C@H](CC(C)C)N(C)C(=O)CN(C)C(=O)[C@H]([C@@H](C)O)NC(=O)[C@H](C)N(C)C(=O)[C@H](C(C)C)N(C)C(=O)[C@H](C)NC(=O)[C@H](CC(C)C)N(C)C(=O)[C@H](Cc2ccccc2)N(C)C1=O [DP-133] ([NMeA]L[NMeF][NMeL]A[NMeV][NMeA]T[Sar][NMeL][NMeF]D-Piperidide; lactam N-12)	30	51		
CC(C)C[C@@H]1NC(=O)C[C@@H](C(=O)N2CCCCC2)NC(=O)[C@H](COC(C)(C)C)NC(=O)[C@H](CC(C)C)N(C)C(=O)CN(C)C(=O)[C@H]([C@@H](C)O)NC(=O)[C@H](CC(C)C)N(C)C(=O)[C@H](Cc2ccccc2)N(C)C1=O [DP-692] (L[NMeF][NMeL]T[Sar][NMeL]S(tBu)D-Piperidide; lactam N-8)	29	212		
CC[C@H](C)[C@@H]1NC(=O)[C@H](Cc2ccccc2)N(C)C(=O)CCCCCc2ccc(cc2)C[C@@H](C(=O)N2CCCCC2)NC(=O)[C@H](C(C)C)N(C)C(=O)[C@H](Cc2ccccc2)N(C)C(=O)[C@H](COC(C)(C)C)NC(=O)[C@H](CC(C)C)N(C)C(=O)CN(C)C(=O)[C@H]([C@@H](C)O)NC(=O)[C@H](CC(C)C)N(C)C1=O [DP-861] ([NMeF]I[NMeL]T[Sar][NMeL]S(tBu)[NMeF][NMeV][Phe(4-(CH2)5CO)]-Piperidide; lactam N-10)	2.9	320		
CC(C)C[C@H]1C(=O)N(C)[C@@H](Cc2ccccc2)C(=O)N(C)[C@@H](CC(C)C)C(=O)N[C@@H](Cc2ccccc2)C(=O)N[C@@H]([C@@H](C)O)C(=O)N(C)[C@@H](C)C(=O)N[C@H](C(=O)N2CCCCC2)CC(=O)N(C)CCC(=O)N[C@@H](C)C(=O)N1C [DP-153] ([NMeβAla]A[NMeL][NMeF][NMeL]FT[NMeA]D-Piperidide; lactam N-9)	26	179		
CCCN1CC(=O)N(C)[C@@H](CC(C)C)C(=O)N[C@@H]([C@@H](C)O)C(=O)N(C)[C@@H](Cc2ccccc2)C(=O)N(C)[C@@H](CC(C)C)C(=O)N(C)[C@@H]([C@@H](C)CC)C(=O)N(C)[C@@H](C)C(=O)N[C@H](C(=O)N2CCCCC2)CC(=O)N(C)CC(=O)N[C@@H](COC(C)(C)C)C1=O [DP-543] ([Sar]S(tBu)[NPrGly][NMeL]T[NMeF][NMeL][NMeI][NMeA]D-Piperidide; lactam N-10)	28	23		
CC(C)C[C@H]1C(=O)N(C)[C@@H](C)C(=O)N[C@H](C(=O)N(C)[C@@H](Cc2ccccc2)C(=O)N[C@@H](C)C(=O)N2CCCCC2)CC(=O)N(C)[C@@H](C)C(=O)N(C)[C@@H](C)C(=O)N(C)[C@@H](Cc2ccccc2)C(=O)N[C@@H]([C@@H](C)O)C(=O)N(C)[C@@H](C)C(=O)N(C)[C@@H](Cc2ccccc2)C(=O)N[C@@H](C)C(=O)N1C [DP-377] ([NMeA][NMeA][NMeF]T[NMeA][NMeF]A[NMeL][NMeA]D[NMeF]A-Piperidide; lactam N-10)	23	70		
CC(C)C[C@H]1C(=O)N(C)[C@@H](CC(C)C)C(=O)N[C@@H](COC(C)(C)C)C(=O)N[C@H](C(=O)N2CCCCC2)CC(=O)N(C)CCCC(=O)N(C)[C@@H](Cc2ccccc2)C(=O)N[C@@H]([C@@H](C)O)C(=O)N(C)CC(=O)N1C [DP-695] ([NMeGABA][NMeF]T[Sar][NMeL][NMeL]S(tBu)D-Piperidide; lactam N-8)	15	47		
